Entries after “also recorded” stand apart in the source; their conditions may differ.
What was measured:
AsolLGR4(long) = assay: CRE reporter gene assay in HEK-293T cells transfected with AsolLGR4(long); assay type: cell-based, A. cf. solaris; settings: HEK-293T cells with AsolLGR4(long), any concentration tested
From the text: (§1) The coding sequences for AsolRXFP/LGR3, AsolLGR4(short), and AsolLGR4(long) lacking a native N-terminal signal peptide were optimized for mammalian codon usage, but with the addition of a 5′ nucleotide sequence encoding an N-terminal bovine prolactin precursor signal peptide followed by a FLAG tag. The coding sequences for each construct are presented in Additional file 16: Dataset S9. Following the addition of a Kozak sequence (GCCACC) before the start codon of each coding sequence, the receptor cDNAs were synthesized in pUC57 vectors (GenScript, Hong Kong) with BamHI and XhoI restriction sites and Gateway‐compatible attB5 and attB2 sites at both ends to also allow recloning into pcDNA3.1/Zeo ( +) or Gateway (Invitrogen) vectors. pUC57 vectors were first digested with BamHI and XhoI restriction enzymes together with pcDNA3.1/Zeo ( +) followed by agarose gel purification of the digested DNA. Receptor constructs were ligated into the cut pcDNA3.1/Zeo ( +) vector to produce pcDNA-AsolRXFP/LGR3, pcDNA − AsolLGR4(short), and pcDNA − AsolLGR4(long). The sequences were confirmed by using Sanger sequencing on both strands. The AsolRXFP/LGR3 sequence was cloned into a lentiviral vector under the control of the constitutive human Ef1α promoter using Gateway technology (Invitrogen), according to the manufacturer’s instructions. […]

[1] = test system: ovarian fragments of A. cf. solaris; assay: In vitro spawning assay with ovarian fragments of A. cf. solaris; settings: 1 h; for gonadotropic activity (shedding of mature eggs / spawning): 2 × 10^−10–2 × 10^−6 M, four separate assays
From the text: Adult A. cf. solaris were collected from the Great Barrier Reef by Pacific Marine Group divers associated with the Great Barrier Reef Marine Park Authority (GBRMPA) before being transported to the University of the Sunshine Coast aquarium facility. Animals were briefly maintained in a re-circulating protein-skimmed and aerated saltwater system of approximately 1500 L. The animals used were approximately 25–55 cm in diameter and kept unfed for the duration of the experiment. The gender and ovarian maturation stage was determined by using a minor gonad tissue biopsy technique and, thereafter, animals were individually segregated in a flowthrough aerated tank filled with approximately 55 L of filtered seawater for a minimum of 24 h to recover and acclimatize.
AsoRGP1 and AsoRGP2 were synthesized as described previously. In addition, a modified form of AsoRGP2 was synthesized in which the N-terminal residue of the A-chain (glutamine, Q) was substituted with pyroglutamate (pQ), recognizing the possibility of this potential post-translational modification. […] In vitro spawning assays using ovarian fragments were performed following procedures described previously. In brief, the ovaries were excised and cut using scissors into small fragments containing only a few lobes. The ovarian fragments were then incubated in artificial seawater containing RGP-type peptides at a range of concentrations (2 × 10^−10–2 × 10^−6 M) for 1 h. As a control experiment, ovarian fragments were incubated in artificial seawater alone. The samples were examined to determine whether or not in vitro spawning had occurred and were scored as follows: (+ + +) spawning occurred and most oocytes had matured; (+ +) about 50% of oocytes had matured, ( +) a few oocytes had matured and ( −): no spawning occurred. […] Means ± standard error of mean (SEM) were determined from four separate assays using ovaries from four different animals.

AsolLGR4(short) = assay: CRE reporter gene assay in HEK-293T cells transfected with AsolLGR4(short); assay type: cell-based, A. cf. solaris; settings: HEK-293T cells with AsolLGR4(short), any concentration tested
From the text: as §1

Substance	cAMP activity / CRE reporter gene activation (AsolLGR4(long))	gonadotropic activity (shedding of mature eggs / spawning) [1]	cAMP activity / CRE reporter gene activation (AsolLGR4(short))	relative potency in inducing shedding of mature eggs / spawning ([1]; semi-quantitative, compared with RGP1 or unmodified RGP2)
Acanthaster cf. solaris Relaxin-like gonad-stimulating peptide 1 [AsolRGP1]	no significant increase in cAMP levels; also recorded: Neither AsolRGP1 nor AsolRGP2 induced CRE reporter gene activation	exhibited gonadotropic activity; also recorded: dose-dependent induction of spawning	no significant increase in cAMP levels; also recorded: Neither AsolRGP1 nor AsolRGP2 induced CRE reporter gene activation	
Acanthaster cf. solaris Relaxin-like gonad-stimulating peptide 2 [AsolRGP2]	no significant increase in cAMP levels; also recorded: Neither AsolRGP1 nor AsolRGP2 induced CRE reporter gene activation	exhibited gonadotropic activity; also recorded: dose-dependent induction of spawning	no significant increase in cAMP levels; also recorded: Neither AsolRGP1 nor AsolRGP2 induced CRE reporter gene activation	slightly less potent than RGP1

— publication PMC11863921 (BMC Biology, 2025)
